This is an account of results in patent EP1826201A1, “Substituted phenylpiperidine derivatives as melanocortin-4 receptor modulators” (Santhera Pharmaceuticals (Schweiz) AG, priority 2006, dated 2007).

Assay [1] has as its target T1, hMC-4R (Homo sapiens, UniProt P32245).
T1 construct: expressed in transfected cells; host or cells: HEK293
Briefly: Membrane binding assay (fluorescence polarization, competition with fluorescence labeled NDP-alpha-MSH). Particulars: HEK293 cell membrane preparations expressing human melanocortin receptors; 5 h at room temperature.

Assay [2] concerns the target T1, hMC-4R. In words: Functional assay (membrane based cAMP fluorescence polarization assay, agonistic activity). It is filed as biochemical. Particulars: for % activation functional assay / Emax: cAMP produced compared to stimulation with NDP-alpha-MSH; for Emax: read-out: % activation functional assay; for EC50: membrane preparations from HEK293 cells expressing the human melanocortin receptors, cAMP production. As for the experimental part:
Agonistic activity of human melanocortin receptors is determined in a homogeneous membrane based assay.
Membrane preparations from HEK293 cells expressing the human melanocortin receptors are added. After a short preincubation period, an appropriate amount of ATP, GTP and the cAMP antibody is added and the plate is further incubated before the fluorescence labeled cAMP conjugate is dispensed. The plate is incubated for 2 h at 4°C before it is read on a fluorescence polarization microplate reader. The amount of cAMP produced as a response to a test compound is compared to the production of cAMP resulting from stimulation with NDP-alpha-MSH.

The structures appear in SMILES notation.

T1 sequence (P32245 whole entry): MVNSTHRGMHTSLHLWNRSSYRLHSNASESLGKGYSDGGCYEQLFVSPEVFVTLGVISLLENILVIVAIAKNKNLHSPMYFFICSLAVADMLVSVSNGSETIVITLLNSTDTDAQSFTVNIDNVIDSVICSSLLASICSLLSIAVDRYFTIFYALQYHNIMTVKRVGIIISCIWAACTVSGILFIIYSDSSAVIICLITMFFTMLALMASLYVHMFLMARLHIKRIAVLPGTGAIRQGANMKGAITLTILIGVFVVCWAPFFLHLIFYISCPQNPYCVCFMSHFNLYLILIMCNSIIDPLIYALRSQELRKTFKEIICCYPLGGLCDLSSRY

The molecule `NC(Cc1ccc(Cl)cc1Cl)C(=O)N1CCC(c2ccccc2OCCN2CCCC2)CC1` (centres unmarked) [Example 1] registered an IC50 on hMC-4R [1] of 0.13 µM. For the same molecule, the “% activation functional assay” value at hMC-4R [2] was “no activation”.
At hMC-4R [1], `NC(Cc1ccc(Cl)cc1)C(=O)N1CCC(c2ccccc2CCCN2CCCC2)CC1` (centres unmarked) [Example 113] had an IC50 of 0.79 µM. For the same molecule, at hMC-4R [2], the Emax was 78% and the EC50 was 1.1 µM.
Turning to `NC(Cc1ccc(Cl)cc1)C(=O)N1CCC(c2cc(F)ccc2OCCN2CCCC2)CC1` (centres unmarked) [Example 105], the IC50 on hMC-4R [1] worked out at 0.26 µM. Besides, on hMC-4R [2], the Emax stood at 90% and the EC50 is 0.57 µM.
Consider `NC(Cc1ccc(Cl)cc1Cl)C(=O)N1CCC(c2cc(F)c(F)cc2OCCN2CCCC2)CC1` (centres unmarked) [Example 7], for which the IC50 on hMC-4R [1] came out at 0.057 µM. Further, the Emax on hMC-4R [2] amounted to 29%.
With `NC(Cc1ccc(Cl)cc1)C(=O)N1CCC(c2ccccc2OCCN2CCCC2)CC1` (centres unmarked) [Example 101], the IC50 on hMC-4R [1] worked out at 0.47 µM. For the same molecule, at hMC-4R [2], the Emax came out at 78% and the midpoint of the response, the EC50, lay at 1.6 µM.
Molecule `NC(Cc1ccc(Cl)cc1)C(=O)N1CCC(c2ccc(F)cc2CCCN2CCCC2)CC1` (centres unmarked) [Example 114] gave an IC50 at hMC-4R [1] of 0.29 µM. Moreover, on hMC-4R [2], the Emax was determined as 89% and the response was half-maximal at 0.64 µM (EC50).
Molecule `NC(Cc1ccc(Cl)cc1Cl)C(=O)N1CCC(c2ccc(Cl)cc2OCCN2CCCC2)CC1` (centres unmarked) [Example 3] gave a concentration for half-maximal inhibition (IC50) at hMC-4R [1] of 0.028 µM. Further, at hMC-4R [2], the “% activation functional assay” value is “no activation”.
For `NC(Cc1ccc(Cl)cc1)C(=O)N1CCC(c2cc(F)c(F)cc2OCCN2CCCC2)CC1` (centres unmarked) [Example 111], the IC50 at hMC-4R [1] worked out at 0.31 µM. Further, at hMC-4R [2], the Emax amounted to 75% and the EC50 stood at 0.17 µM.
`NC(Cc1ccc(Cl)cc1)C(=O)N1CCC(c2cc(Cl)ccc2OCCN2CCCC2)CC1` (centres unmarked) [Example 106]: the IC50 at hMC-4R [1] amounted to 0.15 µM. On hMC-4R [2], the Emax was 87% and it took 0.23 µM to reach a half-maximal effect (EC50).
As to `NC(Cc1ccc(Cl)cc1Cl)C(=O)N1CCC(c2ccc(F)cc2OCCN2CCCC2)CC1` (centres unmarked) [Example 2], the 50% inhibitory concentration (IC50) on hMC-4R [1] turned out to be 0.064 µM. Moreover, the Emax on hMC-4R [2] was determined as 22%.
On to `NC(Cc1ccc(Cl)cc1)C(=O)N1CCC(c2cc(F)c(F)cc2OCCN2CCCCC2)CC1` (centres unmarked) [Example 112], for which, at hMC-4R [1], the half-maximal inhibitory concentration (IC50) is 0.26 µM. Also, on hMC-4R [2], the Emax was found to be 73% and it took 0.11 µM to reach a half-maximal effect (EC50).
`NC(Cc1ccc(Cl)cc1)C(=O)N1CCC(c2ccc(Cl)cc2OCCCN2CCCCC2)CC1` (centres unmarked) [Example 110]: at hMC-4R [1], the IC50 was 0.19 µM. Moreover, on hMC-4R [2], the Emax was 73% and the EC50 worked out at 0.28 µM.
